Assay results taken from ChEMBL document CHEMBL4806965, “Nek6 kinase inhibitors useful for the treatment of solid tumors” (2019).

Columns and labels:
PEO1 [1] = assay: Synergistic cytotoxicity against human PEO1 cells assessed as combination index at 44 uM after 72 hrs in presence of 0.1 uM of cisplatin by ATPlite assay; assay type: functional
PEO1 [2] = assay: Synergistic cytotoxicity against human PEO1 cells assessed as combination index at 44 uM after 72 hrs in presence of 10 uM of cisplatin by ATPlite assay; assay type: functional
PEO1 [3] = assay: Synergistic cytotoxicity against human PEO1 cells assessed as combination index at 44 uM after 72 hrs in presence of 100 uM of paclitaxel by ATPlite assay; assay type: functional
PEO1 [4] = assay: Synergistic cytotoxicity against human PEO1 cells assessed as combination index at 44 uM after 72 hrs in presence of 5 uM of cisplatin by ATPlite assay; assay type: functional
PEO1 [5] = assay: Synergistic cytotoxicity against human PEO1 cells assessed as combination index at 44 uM after 72 hrs in presence of 2 uM of cisplatin by ATPlite assay; assay type: functional
PEO1 [6] = assay: Synergistic cytotoxicity against human PEO1 cells assessed as combination index at 44 uM after 72 hrs in presence of 1000 uM of paclitaxel by ATPlite assay; assay type: functional
PEO1 [7] = assay: Synergistic cytotoxicity against human PEO1 cells assessed as combination index at 44 uM after 72 hrs in presence of 1 uM of paclitaxel by ATPlite assay; assay type: functional
PEO1 [8] = assay: Synergistic cytotoxicity against human PEO1 cells assessed as combination index at 44 uM after 72 hrs in presence of 10 uM of paclitaxel by ATPlite assay; assay type: functional
PEO1 [9] = assay: Cytotoxicity against human PEO1 cells assessed as inhibition of cell growth after 72 hrs by ATPlite assay; assay type: functional, cell-based; details: PEO1, 72 h
PEO1 [10] = assay: Synergistic cytotoxicity against human PEO1 cells assessed as combination index at 44 uM after 72 hrs in presence of 10000 uM of paclitaxel by ATPlite assay; assay type: functional
PEO1 [11] = assay: Synergistic cytotoxicity against human PEO1 cells assessed as combination index at 44 uM after 72 hrs in presence of 1 uM of cisplatin by ATPlite assay; assay type: functional

With `CC1=C(C#N)C(O)=NC(=O)/C1=C\c1ccc(-c2ccccc2)o1` as the compound, how does the CI (PEO1 [1]) read?
Its CI is 0.81.

And the CI (PEO1 [2])?
The CI was 0.69.

And the CI (PEO1 [3])?
Its CI is 4.68.

And the CI (PEO1 [4])?
Its CI is 1.03.

What about the CI (PEO1 [5]) of the same compound?
Its CI is 1.01.

What about the CI (PEO1 [6]) of the same compound?
The CI was 29.58.

And the CI (PEO1 [7])?
The CI was 0.87.

What about the CI (PEO1 [8]) of the same compound?
The CI was 1.05.

And the IC50 (PEO1 [9])?
The IC50 was 44 µM.

What about the CI (PEO1 [10]) of the same compound?
Its CI is 287.79.

What about the CI (PEO1 [11]) of the same compound?
Its CI is 1.08.

`CC(=O)O[C@H]1C(=O)[C@@]2(C)[C@H]([C@H](OC(=O)c3ccccc3)[C@]3(O)C[C@H](OC(=O)[C@H](O)[C@@H](NC(=O)c4ccccc4)c4ccccc4)C(C)=C1C3(C)C)[C@]1(OC(C)=O)CO[C@@H]1C[C@@H]2O` [PACLITAXEL] was tested. Which IC50 (PEO1 [9]) did it give?
The IC50 was 7 µM.
